# System: SH-SY5Y neuroblastoma cells
# Assay: Neuroprotection / cell viability of differentiated SH-SY5Y neuroblastoma cells with or without MPP (CCK-8)
# Format: cell-based, human
# Details: RA-differentiated SHSY-5Y cells treated with MPP+, FIG. 11
# Method: Neuroblastoma cells were treated with compositions comprising bacterial strains according to the invention. The SH-SY5Y neuroblastoma cells used are dopamine producing and well-established as an in vitro model for studying neurodegenerative diseases. The ability of the bacterial strains to increase neuroproliferation was observed. The neuroblastoma cells were treated also treated dopaminergic neurotoxin 1-methyl-4-phenylpyridinium (MPP), which induces permanent symptoms of Parkinson's disease in neuroblastoma cells. The ability of the bacterial strains to act as a neuroprotectant against MPP was investigated.
# SH-SY5Y neuroblastoma cells were purchased from ECCACC (Cat. no: 94030304) and were grown in MEM (Sigma Aldrich, cat n. M2279) supplemented with Nutrient Mixture F-12 Ham (Sigma Aldrich, cat n. N4888).
# Once grown the SH-SY5Y neuroblastoma cells were plated on 96-well plate at 11,000 cells/well and incubated for 2 days. […] Cell viability was measured by using CCK-8 reagent (Sigma Aldrich, Cell Counting Kit—8, cat. n. 96992-3000TESTS-F) and read at 450 nm wavelength.
# RA-differentiated SHSY-5Y cells were treated with MPP+, the active metabolite of MPTP, a chemical widely used to mimic in vitro and in vivo some of the features of PD pathology. Cell viability was measured as the rate of mitochondria respiration (FIG. 11).
compound,measurement,value
O=c1c(O)c(-c2ccc(O)c(O)c2)oc2cc(O)cc(O)c12 [quercetin],protection compared to YCFA-MPP+ treated sample,about 20%

# Reference: US12048720B2, “Compositions comprising bacterial strains” (CJ BIOSCIENCE, INC., priority 2017, dated 2024)
